Measured values taken from patent US6884407B1, “Methods for diagnostic imaging involving the use of a contrast agent and a coronary vasodilator” (Bristol-Myers Squibb Pharma Company, priority 1996, dated 2005).
Read-outs that look alike come from different tables or passages of the source.

Assays:
[1] = Calculated diameter of emulsified droplet to form a 10 μm vesicle (ideal gas law); format: physicochemical; settings: for Diameter (μm) of emulsified droplet to make 10 micron vesicle: Table 2
Excerpt: As noted above, compositions employed herein may also include, with respect to their preparation, formation and use, gaseous precursors that can be activated to change from a liquid or solid state into a gas by temperature, pH, light, and energy (such as ultrasound). The gaseous precursors may be made into gas by storing the precursors at reduced pressure. For example, a vial stored under reduced pressure may create a headspace of perfluoropentane or perfluorohexane gas, useful for creating a preformed gas prior to injection. Preferably, the gaseous precursors may be activated by temperature. Set forth below is a table listing a series of gaseous precursors which undergo phase transitions from liquid to gaseous states at relatively close to normal body temperature (37° C.) or below, and the size of the emulsified droplets that would be required to form a vesicle of a maximum size of 10 μm.
The ideal gas law, which can be used for calculating the increase in the volume of the gas bubbles upon transitioning from liquid to gaseous states, is as follows: PV=nRT where
Thus, for stabilization of the precursor in the liquid state in a mixture wherein the precursor droplet is spherical, the volume of the precursor droplet may be determined by the equation: Volume (spherical vesicle)=4/3 πr^3 where
(B) where D is the density of the precursor. Solving for the diameter of the liquid droplet, diameter/2=[3/4π[4/3·[πrgas^3]P/RT]MWn/D]^1/3 (C) which reduces to Diameter=2[[rgas^3]P/RT[MWn/D]]^1/3.

[2] = cited from earlier work
[3] = cited from earlier work; for Boiling Point: Table 2, CRC Handbook
[4] = saturated diacyl-sn-glycero-3-phosphocholines, main chain melting transition; cited from earlier work
[5] = tested on: myocardium; assay: Ultrasound dose range studies of myocardium echo enhancement before and after coronary vasodilator; format: in vivo; settings: 20 Kg pig, dipyridamole 0.56 mg/Kg IV over 4 minutes with gas filled vesicles of Example 1
Procedure: This example includes a description of methods for imaging the cardiovascular region of a patient in accordance with methods within the scope of the present invention.
A 20 Kg pig is anesthetized with isoflurane and a Swan Ganz catheter is inserted to monitor hemodynamics. Dose range studies are conducted using the gas filled vesicles prepared in Example 1 to determine the minimum dose required to enhance the myocardium echo, which is defined as greater than 10 videodensitometry units as determined by repeated videodensity measurements. After the dose range studies are performed, dipyridamole is administered intravenously at a dose of 0.56 mg/Kg over a period of 4 minutes. After a 5 minute latency period, dose range studies are repeated.

[6] = Table 2, CRC Handbook, in g/mL (unit assumed)

Compound	Diameter (μm) of emulsified droplet to make 10 micron vesicle [1]	Density [2, 6]	Boiling Point [3]	Main Phase Transition Temperature [4]	further results
2-methyl 1-butene	2.5 μm	0.6504	31.2 °C	–	–
CCCCCCCCCCCC(=O)OC[C@H](COP(=O)([O-])OCC[N+](C)(C)C)OC(=O)CCCCCCCCCCC [1,2-(12:0)]	–	–	–	−1.0 °C	–
CCCCCCCCCCCCC(=O)OC[C@H](COP(=O)([O-])OCC[N+](C)(C)C)OC(=O)CCCCCCCCCCCC [1,2-(13:0)]	–	–	–	13.7 °C	–
CCCCCCCCCCCCCC(=O)OC[C@H](COP(=O)([O-])OCC[N+](C)(C)C)OC(=O)CCCCCCCCCCCCC [1,2-(14:0)]	–	–	–	23.5 °C	–
CCCCCCCCCCCCCCC(=O)OC[C@H](COP(=O)([O-])OCC[N+](C)(C)C)OC(=O)CCCCCCCCCCCCCC [1,2-(15:0)]	–	–	–	34.5 °C	–
CCCCCCCCCCCCCCCC(=O)OC[C@H](COP(=O)([O-])OCC[N+](C)(C)C)OC(=O)CCCCCCCCCCCCCCC [1,2-(16:0)]	–	–	–	41.4 °C	–
CCCCCCCCCCCCCCCCC(=O)OC[C@H](COP(=O)([O-])OCC[N+](C)(C)C)OC(=O)CCCCCCCCCCCCCCCC [1,2-(17:0)]	–	–	–	48.2 °C	–
CCCCCCCCCCCCCCCCCC(=O)OC[C@H](COP(=O)([O-])OCC[N+](C)(C)C)OC(=O)CCCCCCCCCCCCCCCCC [1,2-(18:0)]	–	–	–	55.1 °C	–
CCCCCCCCCCCCCCCCCCC(=O)OC[C@H](COP(=O)([O-])OCC[N+](C)(C)C)OC(=O)CCCCCCCCCCCCCCCCCC [1,2-(19:0)]	–	–	–	61.8 °C	–
CCCCCCCCCCCCCCCCCCCC(=O)OC[C@H](COP(=O)([O-])OCC[N+](C)(C)C)OC(=O)CCCCCCCCCCCCCCCCCCC [1,2-(20:0)]	–	–	–	64.5 °C	–
CCCCCCCCCCCCCCCCCCCCC(=O)OC[C@H](COP(=O)([O-])OCC[N+](C)(C)C)OC(=O)CCCCCCCCCCCCCCCCCCCC [1,2-(21:0)]	–	–	–	71.1 °C	–
CCCCCCCCCCCCCCCCCCCCCC(=O)OC[C@H](COP(=O)([O-])OCC[N+](C)(C)C)OC(=O)CCCCCCCCCCCCCCCCCCCCC [1,2-(22:0)]	–	–	–	74.0 °C	–
CCCCCCCCCCCCCCCCCCCCCCC(=O)OCC(COP(=O)([O-])OCC[N+](C)(C)C)OC(=O)CCCCCCCCCCCCCCCCCCCCCC (stereo not shown) [1,2-(23:0)]	–	–	–	79.5 °C	–
CCCCCCCCCCCCCCCCCCCCCCCC(=O)OCC(COP(=O)([O-])OCC[N+](C)(C)C)OC(=O)CCCCCCCCCCCCCCCCCCCCCCC (stereo not shown) [1,2-(24:0)]	–	–	–	80.1 °C	–
C#CC(=C)C [1-butene-3-yne-2-methyl]	2.4 μm	0.6801	34.0 °C	–	–
CCCCF [1-fluorobutane]	1.2 μm	0.6779	32.5 °C	–	diameter of emulsion droplets to make a gaseous precursor filled vesicle with an upper limit of 10 μm ([1]; equation (C), 37° C., 1 atmosphere): 0.0544 μm; Density ([2]; at 20° C.): 0.7789 g/mL; liquid/gas phase transition temperature (boiling point) [3]: 32.5 °C
CCC(C)C [2-methyl butane (isopentane), 2-methyl butane]	2.6 μm	0.6201	–	–	–
CC=C(C)C [2-methyl-2-butene]	2.5 μm	0.6623	38.6 °C	–	–
C#CC(C)C [3-methyl-1-butyne]	2.5 μm	0.6660	29.5 °C	–	–
FC(F)(F)C(F)(F)C(F)(F)C(F)(F)F [decafluoro butane, perfluorobutane]	3.0 μm	1.517	−2 °C	–	liquid/gas phase transition temperature (boiling point) [3]: 4 °C
OCCN(CCO)c1nc(N2CCCCC2)c2nc(N(CCO)CCO)nc(N3CCCCC3)c2n1 [dipyridamole]	–	–	–	–	diagnostic artifacts [5]: substantially eliminated; dosage of contrast agent required to obtain a medically useful diagnostic image of the cardiovascular region ([5]; after vs before dipyridamole): significantly smaller dosage
FC(F)(F)C(F)(F)F [hexafluoro ethane]	2.7 μm	1.607	–	–	–
FC1(F)C(F)(F)C(F)(F)C1(F)F [octafluoro cyclobutane, octafluorocyclobutane]	2.8 μm	1.48	−5.8 °C	–	–
FC(F)(F)C(F)(F)C(F)(F)C(F)(F)C(F)(F)F [perfluoro pentane, perfluoropentane]	2.9 μm	1.7326	29.5 °C	–	liquid/gas phase transition temperature (boiling point) [3]: 29.5 °C
FC(F)(F)C(F)(F)C(F)(F)C(F)(F)C(F)(F)C(F)(F)F [perfluorohexane]	–	–	–	–	liquid/gas phase transition temperature (boiling point) [3]: 57 °C
